Laboratory results taken from patent publication US20200246317A1, “METHODS OF TREATING DIABETIC NEUROPATHY WITH A THIAZOLINE ANTI-HYPERALGESIC AGENT” (CERSCI THERAPEUTICS, INC., priority 2019, published 2020).
Counter-ions that a name gives are not always drawn.

Assays:
[1] = Stability of dose formulations for in vitro genetic toxicology assays; format: physicochemical; conditions: 0.001 to 50 mg/mL
Protocol: In addition, formulation analysis for in vitro genetic toxicology studies was performed using a validated HPLC/UV analytical method (2750-001-001 Dose Formulation Method No. 2) with linearity over a range of 0.001 to 50 mg/mL. Dose formulations for in vitro assays were stable at room temperature for up to 1 day and when stored frozen at −20° C. for up to 45 days.

[2] = system: STZ-induced mechanical allodynia; test: Diabetic neuropathy model of FIG. 10 (STZ, mechanical hypersensitivity); format: in vivo, mice; conditions: STZ on day −7
Protocol: Streptozotocin (STZ) destroys insulin-producing cells and generates a diabetic phenotype in mice. Animals were dosed with STZ on day −7. By day 0, animals are hyperglycemic and hyperalgesic (day 0 BL).

[3] = Stability in hepatocytes, human; format: in vitro ADME
[4] = system: hypersensitivity caused by an injury/insult such as an incision or irritant; test: Hypersensitivity caused by an injury/insult (incision or irritant); conditions: in vivo
[5] = Stability of dose formulations for GLP toxicology studies (0.5% HPMC); format: physicochemical; conditions: 1.0 to 200 mg/mL in 0.5% HPMC
Protocol: Formulation analysis and bioanalytical methods were validated for all GLP studies. Formulation of Compound 1 in water was validated over a range of 1 to 200 mg/mL using HPLC and in 0.5% hydroxypropyl methylcellulose (HPMC) over the same range.
Dose formulation analysis for all good laboratory practice (GLP) general toxicology studies was performed using a validated high-performance liquid chromatography (HPLC)/ultraviolet (UV) analytical method (2750-001-001 Dose Formulation Method 1). The vehicle used in the in vivo toxicology studies was 0.5% HPMC). The analytical method utilized HPLC with monitoring at 227 nm with an isocratic mobile phase of methanol with the column temperature set to 25° C. Linearity over a range of 1.0 to 200 mg/mL was observed. Dose formulations over this range were stable at room temperature for up to 13 days and were stable when stored frozen at −20° C. for up to 85 days.

[6] = biological target: T1, BCRP (ABCG2) (Homo sapiens, UniProt Q9UNQ0); test: Inhibition of transporters, BCRP (MDCKII cells, prazosin); format: in vitro ADME
T1 construct: expressed in transfected cells; host or cells: MDCKII-BCRP cells (with MDCKII control cells)
T1 sequence (Q9UNQ0 1-655): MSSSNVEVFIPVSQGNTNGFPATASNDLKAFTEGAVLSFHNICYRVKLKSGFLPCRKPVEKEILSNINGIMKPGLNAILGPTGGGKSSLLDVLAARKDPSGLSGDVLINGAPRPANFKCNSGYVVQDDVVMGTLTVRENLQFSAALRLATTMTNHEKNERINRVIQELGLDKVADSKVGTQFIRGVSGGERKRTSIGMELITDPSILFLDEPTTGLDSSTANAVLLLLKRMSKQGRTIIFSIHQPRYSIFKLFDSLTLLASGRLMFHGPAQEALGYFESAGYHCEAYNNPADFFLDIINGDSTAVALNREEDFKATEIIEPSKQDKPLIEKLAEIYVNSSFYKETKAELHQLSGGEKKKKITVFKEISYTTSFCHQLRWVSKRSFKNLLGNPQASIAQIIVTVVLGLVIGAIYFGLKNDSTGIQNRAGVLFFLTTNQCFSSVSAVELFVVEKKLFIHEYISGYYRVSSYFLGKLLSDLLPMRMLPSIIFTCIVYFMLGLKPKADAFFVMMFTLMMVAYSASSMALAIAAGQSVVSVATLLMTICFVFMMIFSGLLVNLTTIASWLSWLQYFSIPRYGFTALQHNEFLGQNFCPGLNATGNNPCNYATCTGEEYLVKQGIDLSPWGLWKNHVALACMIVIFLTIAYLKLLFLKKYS

[7] = Stability in hepatocytes, rat; format: in vitro ADME
[8] = Chemical-based assays of peroxynitrite (PN) oxidation (luminol); format: biochemical
[9] = biological target: T2, OATP1B3 (Homo sapiens, UniProt Q9NPD5); test: Inhibition of transporters, OATP1B3 (HEK293 cells); format: in vitro ADME
T2 construct: expressed in transfected cells; host or cells: HEK293 cells
T2 sequence (Q9NPD5 1-702): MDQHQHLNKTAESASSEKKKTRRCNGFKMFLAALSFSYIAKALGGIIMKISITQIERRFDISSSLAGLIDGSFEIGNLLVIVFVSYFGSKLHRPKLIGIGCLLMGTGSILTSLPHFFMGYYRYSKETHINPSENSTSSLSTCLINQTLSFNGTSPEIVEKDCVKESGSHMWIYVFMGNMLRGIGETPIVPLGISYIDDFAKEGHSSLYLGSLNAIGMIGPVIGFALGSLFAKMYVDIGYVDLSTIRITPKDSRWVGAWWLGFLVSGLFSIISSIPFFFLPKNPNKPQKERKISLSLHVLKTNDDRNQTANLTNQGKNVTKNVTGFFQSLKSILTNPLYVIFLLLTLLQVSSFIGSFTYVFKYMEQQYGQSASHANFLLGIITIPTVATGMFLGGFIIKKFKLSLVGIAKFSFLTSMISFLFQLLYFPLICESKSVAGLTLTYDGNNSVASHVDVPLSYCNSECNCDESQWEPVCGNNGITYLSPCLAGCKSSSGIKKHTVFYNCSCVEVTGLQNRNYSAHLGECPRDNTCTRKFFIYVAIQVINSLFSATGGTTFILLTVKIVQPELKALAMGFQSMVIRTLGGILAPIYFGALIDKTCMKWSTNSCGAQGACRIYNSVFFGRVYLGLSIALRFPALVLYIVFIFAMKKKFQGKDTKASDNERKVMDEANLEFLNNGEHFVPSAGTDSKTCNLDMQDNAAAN

[10] = Pharmacokinetics in dog; format: in vivo
Protocol: Similar conditions were used to validate a bioanalytical method in dog plasma also using 50 μL of plasma. In both assays, a deuterated (Compound 1-d4) internal standard was used.

[11] = system: lactoperoxidase oxidation (mediated by peroxide); test: Lactoperoxidase oxidation (mediated by peroxide); format: biochemical; conditions: physiological conditions (neutral pH)
[12] = Stability in hepatocytes, dog; format: in vitro ADME
[13] = system: uninjured animals; test: Normal sensation in uninjured animals; format: in vivo; conditions: given to uninjured animals
[14] = system: methylglyoxal-induced diabetic neuropathy; test: Rat model of diabetic neuropathy, methylglyoxal-induced; format: in vivo; conditions: methylglyoxal-induced (overview)
[15] = system: models of painful diabetic neuropathy; test: Models of painful diabetic neuropathy (overview); format: in vivo; conditions: upon repeated dosing

With `CC1(C)SC(Nc2ccccc2O)=N[C@@H]1C(=O)O` [Compound 1, (R)-2-(2-hydroxyphenylamino)-5,5-dimethyl-4,5-dihydrothiazole-4-carboxylic acid mono-hydrochloride] the “stability of dose formulations for in vitro assays, time stable” value ([1]; room temperature) was “up to 1 day”, the “stability of dose formulations for in vitro assays, time stable” value ([1]; stored frozen at −20° C.) was “up to 45 days” and the “effect on STZ-induced mechanical allodynia” value [2] was “blocks STZ-induced mechanical allodynia”. The stability in hepatocytes [3] was “stable”, the reversal of hypersensitivity [4] was “complete reversal of hypersensitivity” and the “stability of dose formulations, time stable” value ([5]; room temperature) was “up to 13 days”. The “stability of dose formulations, time stable” value ([5]; stored frozen at −20° C.) was “up to 85 days”, the “inhibition of BCRP (in words)” value [6] was “modestly inhibits” and the stability in hepatocytes [7] was “stable”. For the same compound, the “PN-mediated oxidation of small-molecule organic substrates such as luminol” value [8] was “inhibits PN-mediated oxidation”, the “inhibition of OATP1B3 (in words)” value [9] was “does not inhibit” and the “bioavailability after oral administration” value [10] was “bioavailable”. The removal of peroxynitrite [11] was “catalytically remove peroxynitrite”, the stability in hepatocytes [12] was “stable” and the “effect on normal sensation” value [13] was “does not alter normal sensation”. For the same compound, the effect on allodynia [14] was “alleviates allodynia” and the effect on allodynia [15] was “reverses allodynia”.
